# Assay results as given in paper PMC11457795 (Cell chemical biology, 2024).
# pIC50: −log10 of the molar value.
# Biological target: PfMAGL (Plasmodium falciparum, UniProt Q8IJ22)
# Test: fluorogenic 4-methylumbelliferyl caprylate hydrolysis assay, […] min preincubation
# Assay type: biochemical
smiles,measurement,value
"C#CCCCCP(=O)(OCC)Oc1ccc(S(=O)(=O)F)cc1 (racemic) [compound 2, ethyl (4-(fluorosulfonyl)phenyl) hex-5-yn-1-ylphosphonate]",pIC50,7.70
